Data published in US20200062776A1, “HEDGEHOG ACYLTRANSFERASE INHIBITORS AND USES THEREOF” (Memorial Sloan-Kettering Cancer Center, priority 2016, published 2020).

Key:
H1703 oncospheres = experiment: H1703 oncosphere growth, 10 days, EZQuant; assay type: cell-based, human; settings: for cell count of H1703 oncospheres: compounds replenished every 2 days
Protocol: Duplicate wells were treated with the indicated concentrations of compound for 10 days. Compounds were replenished in the media every 2 days. Cell number was quantified at Day 10 using EZQuant (Alstem).

[1] = test system: AsPC1 human pancreatic cancer cells; experiment: AsPC1 cell growth, 96-well plates, 6 days, EZQuant; assay type: cell-based; settings: 750 cells/well
Protocol: (§1) AsPC1 human pancreatic cancer cells (FIG. 5A) or T47D human breast cancer cells (FIG. 5B) were seeded at 750 cells/well in 96 well plates and grown for 6 days in the presence of the indicated concentrations of TDI-3410 or DMSO. Compounds were added on Day 0, and were replenished in the media every 2 days. Each condition was represented by duplicate wells. Cell number was quantified at Day 6 using EZQuant (Alstem).

purified Hhat = molecular target: T1, purified Hhat (Homo sapiens, UniProt Q5VTY9); experiment: Pulldown assay: purified Hhat + 125I-palmitoyl CoA + Shh peptide; assay type: biochemical; settings: 1 hr at 20° C.; read-out: IC50, Shh palmitoylation by purified Hhat
T1 construct: HA; made in house; host or cells: 293FT cells
Protocol: FIG. 3. TDI-003410 inhibits Shh palmitoylation by purified Hhat. Pulldown assay: Purified Hhat+^125I-palmitoyl CoA+Shh peptide. […] Hhat was purified to homogeneity from 293FT cells transfected with a cDNA encoding HA-tagged Hhat, as described by Buglino and Resh (see, e.g., Buglino, J. A., and Resh, M. D. “Hhat is a palmitoyl acyltransferase with specificity for N-palmitoylation of sonic hedgehog” J. Biol. Chem. 2008, 283, 22076-22088). Purified Hhat was incubated with ^125I-Iodopalmitoyl CoA and a C-terminally biotinylated Shh peptide (representing the first 10 amino acids of mature Shh) for 1 hr at 20° C. in the presence of the indicated concentrations of TDI-3410. The reaction was quenched, and biotinylated peptides were captured on streptavidin-agarose beads by repeated centrifugation and washing. The amount of 125 radioactivity remaining in the bead pellet was determined in a g counter. % Inhibition was calculated as in FIG. 1A.

[2] = test system: oncospheres derived from AsPC-1 human pancreatic cancer cells; experiment: AsPC-1 oncosphere growth, 7 days, EZQuant; assay type: cell-based; settings: ASPC1, drug replenished every 2 days, read-out: IC50, cell proliferation of AsPC-1 oncospheres
Protocol: AsPC-1 pancreatic cancer cells were grown on ultra-low attachment plates for 7-10 days in serum-free medium containing EGF, FGF, Insulin and N-2 and B-27 supplement to form oncospheres, which represent cancer stem cells. Oncosphere cultures were expanded and replated, and were used after 7 days in 2° culture. Oncospheres grown in 24-well plates were treated with TDI-3410 or vehicle; drug was replenished every 2 days. 7 days later, oncospheres were dissociated with trypsin and total viable cell number was determined using EZQuant.

membrane-bound Hhat = molecular target: T2, membrane-bound Hhat (Homo sapiens, UniProt Q5VTY9); experiment: Shh palmitoylation by membrane-bound Hhat (P100 membranes, SPA); assay type: biochemical; settings: 1 hr at 20° C., triplicate
T2 construct: HA; expressed in transfected cells; host or cells: 293FT cells (P100 microsomal membranes)
Protocol: Microsomal membranes (P100) were prepared from 293FT cells transfected with a cDNA encoding HA-tagged Hhat as described (see, e.g., Buglino, J. A., and Resh, M. D. “Hhat is a palmitoyl acyltransferase with specificity for N-palmitoylation of sonic hedgehog” J. Biol. Chem. 2008, 283, 22076-22088; Petrova, E., Rios-Esteves, J., Ouerfelli, O., Glickman, J. F., and Resh, M. D. “Inhibitors of Hedgehog acyltransferase block Sonic Hedgehog signaling” Nat Chem Biol 2013, 9, 247-249). The protocol described by Petrova et al. (Nat Chem Biol 2013, 9, 247-249) was used to analyze Shh palmitoylation. Briefly, P100 membranes were incubated with ^125I-Iodopalmitoyl CoA and a C-terminally biotinylated Shh peptide in 384-well plates in the presence of the indicated concentrations of TDI-3410 for 1 hr at 20° C. Biotinylated peptides were captured on streptavidin-coated SPA (Scintillation Proximity Assay) beads and the amount of ^125I radioactivity was quantified on a Perkin-Elmer Trilux reader. Each data point represents the average of triplicate samples. % Inhibition was calculated as in FIG. 1A.

Hhat = Hhat (Homo sapiens, UniProt Q5VTY9); experiment: Hhat-mediated Shh palmitoylation in COS-1 cells transfected with Shh and Hhat ([125I]-iodopalmitate labeling); assay type: cell-based; set-up: dose or concentration left out as unconfirmed; settings: 4 hr labeling at 37° C.
Protocol: FIGS. 1A-1B. […] FIG. 1A. COS-1 cells were transfected with cDNA plasmids encoding Shh and Hhat (see, e.g., Buglino, J. A., and Resh, M. D. “Hhat is a palmitoyl acyltransferase with specificity for N-palmitoylation of sonic hedgehog” J. Biol. Chem. 2008, 283, 22076-22088; Petrova, E., Rios-Esteves, J., Ouerfelli, O., Glickman, J. F., and Resh, M. D. “Inhibitors of Hedgehog acyltransferase block Sonic Hedgehog signaling” Nat Chem Biol 2013, 9, 247-249). 48 hours after transfection, cells were starved for 1 hour in DMEM containing 2% dialyzed fetal calf serum and then labeled for 4 hr at 37° C. with […] [^125I]-iodopalmitate in the presence of […] of the indicated compound or DMSO. Cell lysates were immunoprecipitated with anti-Shh antibody, analyzed by SDS-PAGE and dried gels were subjected to Phosphorimaging. The amount of radiolabel incorporated into Shh was quantified and compared to that obtained for DMSO (normalized to 1.0). % Inhibition=1−(signal in drug treated sample/signal in DMSO sample)×100. FIG. 1B. Structure of RU-SKI 43 (see, e.g., Petrova, E., Rios-Esteves, J., Ouerfelli, O., Glickman, J. F., and Resh, M. D. “Inhibitors of Hedgehog acyltransferase block Sonic Hedgehog signaling” Nat Chem Biol 2013, 9, 247-249).

[3] = test system: T47D human breast cancer cells; experiment: T47D cell growth, 96-well plates, 6 days, EZQuant; assay type: cell-based; settings: 750 cells/well
Protocol: as §1

HeLa cells = experiment: HeLa cell proliferation, 24-well plates, EZQuant; assay type: cell-based; set-up: effect on proliferation of HeLa cells: dose or concentration left out as unconfirmed
Protocol: 24-well plate; Drugs replenished every 2 days; viable cells quantified with EZQuant; STS=Staurosporine, a positive control for cell killing. […] HeLa cells were seeded at 0.5×10^5 cells/well in 24-well plates and proliferation was assayed as described for FIG. 5. Each compound was present […].

[4] = test system: AsPC1 human pancreatic cancer cells; experiment: AsPC1 cell growth, 24-well plates, 6 days, Crystal violet staining; assay type: cell-based; settings: ASPC1, 144 h, FIG. 2D inhibition curve
Protocol: FIGS. 2A-2D show inhibition of the growth of AsPC1 cells by TDI compounds. […] Compounds were added on Day 0, and were replenished in the media every 2 days. Each condition was represented by duplicate wells. Cell number was quantified by Crystal violet staining. FIG. 2A. Growth curve. FIG. 2B. Crystal violet staining of a typical set of 6 wells. FIG. 2C. Bar graph depicting % inhibition of cell proliferation at Day 6 for each compound, compared to DMSO treated cells. % Inhibition was calculated as in FIG. 1A.

T1 sequence (Q5VTY9 whole entry): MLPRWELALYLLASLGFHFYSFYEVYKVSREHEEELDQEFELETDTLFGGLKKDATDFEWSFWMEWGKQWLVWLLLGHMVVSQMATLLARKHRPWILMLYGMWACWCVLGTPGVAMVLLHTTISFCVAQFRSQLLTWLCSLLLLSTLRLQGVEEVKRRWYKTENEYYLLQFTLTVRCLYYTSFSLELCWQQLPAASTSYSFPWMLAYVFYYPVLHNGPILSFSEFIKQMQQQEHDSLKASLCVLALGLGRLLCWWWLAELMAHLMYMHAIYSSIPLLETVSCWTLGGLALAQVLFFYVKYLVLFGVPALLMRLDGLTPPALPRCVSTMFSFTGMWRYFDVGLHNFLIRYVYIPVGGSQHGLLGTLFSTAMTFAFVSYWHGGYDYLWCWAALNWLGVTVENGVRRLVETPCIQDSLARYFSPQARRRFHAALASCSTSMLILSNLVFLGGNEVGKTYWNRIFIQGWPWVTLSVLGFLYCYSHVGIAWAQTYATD
Chain of Hhat (Q5VTY9 whole entry): as above
T2 sequence (Q5VTY9 whole entry): as above

IC50 (purified Hhat) [µM] | IC50 [2] [µM] | IC50 (membrane-bound Hhat) [µM] | IC50 (H1703 oncospheres; Homo sapiens, NCI-H1703, 240 h) [µM] | Hhat-mediated Shh palmitoylation (Hhat) | IC50 (HeLa cells; Homo sapiens, HeLa, FIG. 6B inhibition curve, read-out: IC50, growth of HeLa cells) [µM] | IC50 [4] [µM] | SMILES | cell count of H1703 oncospheres (H1703 oncospheres) | growth of AsPC1 human pancreatic cancer cells [1] | growth of T47D human breast cancer cells [3] | concentration above which growth of HeLa cells is inhibited (HeLa cells; FIG. 6B) [µM] | effect on proliferation of HeLa cells (HeLa cells; HeLa cells express no detectable Hhat)
 |  |  |  |  |  |  | CCC(C)CNCC(=O)N1CCc2sccc2C1COc1cccc(C)c1 (stereo not shown) [RU-SKI 43, reference compound] | reduction in cell count with increased concentration |  |  |  | 
1.5 | 1.8 | 1.78 | 1.4 | blocks Hhat-mediated Shh palmitoylation | 28.5 | 2.68 | O=C(c1ccc2nccn2c1)N1CCc2sc(Cl)cc2[C@H]1c1ccc(F)cc1 [TDI-003410] | reduction in cell count with increased concentration | inhibits the growth | inhibits the growth | > 20 | little to no effect
